Source: patent publication US9447066B2, “Salts and crystal forms” (AskAt Inc., priority 2012, dated 2016)
“Also recorded” adds a separate entry of the source. Read-outs that look alike come from different tables or passages of the source.

What was measured:
[1] = Intrinsic dissolution experiments; format: physicochemical; details: for intrinsic dissolution rate, comparison in words: pH 6.8 buffer and water; for time to plateau / complete dissolution of tablet: pH 6.8 buffer (neutral media)
Procedure: Intrinsic dissolution experiments were performed on the free acid, the meglumine salt, and the potassium salt. The measurements were carried out in pH 6.8 (0.05 M) phosphate buffer and water.
The press used for tablet preparation for intrinsic dissolution rate measurements was a mini-IDR compression system (pION/Heath Scientific). Approximately 11 mg of material was pressed in the cylindrical hole of a passivated stainless steel die, to a uniform, flat surface, with an exposed area of 0.072 cm^2. The pressure applied was approximately 50 bar for 3-5 min. The sample die was inserted in a cylindrical Teflon rotating disk carrier containing an embedded magnetic stirring bar at its base. The die/stirrer assembly was placed in a flat bottomed glass vial, ready for dissolution analysis.
The dissolution rate was measured in 20 ml of solvent (medium) and the path length of the UV meter was 2 mm. Applied stirring speed during measurement was 100 rpm. Measurements were performed at 20° C.

[2] = In vivo pharmacokinetic study in Beagle dogs; details: male Beagle dogs; for AUC(0-t): read-out: AUC0-24h; for time-course of mean plasma concentration in comparison with API: oral capsule, FIG. 10
Procedure: In vivo pharmacokinetic study was carried out in Beagle dogs.
Male Beagle dogs were given single oral dose of the test articles by gelatin capsule formulation at a dose of 5 mg/kg. The actual weight of the test articles in the gelatin capsule to be administered to each animal was calculated based on the body weight measured just before the administration.
Following dosing, blood was collected from the external jugular vein of animals at 0, 0.25, 0.5, 1, 2, 4, 6, 8, 12, 24, 48, 72, 96, 120, 144, 168, […], 288, and 360 hour after administration. Approximately 1 mL of blood will be collected into tubes containing heparin-Na.
On the day of administration, food was given to the animals after 6-hour blood sampling.
The drug concentrations in dog plasma were determined with the validated bioanalytical assay procedures. PK parameters were determined with non-compartmental analysis.

[3] = Quantitative Solubility Assessment; format: physicochemical; details: pH 6.8 phosphate buffer (0.05 M) and water, thermodynamic from solid; neutral to basic environment
Procedure: Quantitative Solubility Assessment were performed on the free acid, the meglumine salt, and the potassium salt. The measurements were carried out in pH 6.8 phosphate buffer (0.05M) and water.
A standard 1.8 ml screw cap vial was charged with the material, each solvent (medium) and a magnetic stirring bar. The vials were subsequently closed and equilibrated at the ambient temperature for 24 h while stirring.
The liquid part was retrieved with a syringe and filtrated (0.5 micron filter); the isolated mother liquors were diluted to two dilutions selected according to the calibration curve. Quantities of the API in the diluted solutions were determined via HPLC analysis (DAD). The calibration curve was obtained from two independently prepared stock solutions of the API in 50% water/50% acetonitrile.

[4] = Solid-state stability at 40° C. and 75% relative humidity; format: physicochemical; details: 75% RH, 1 to 4 weeks
Procedure: The solid-state stabilities were assessed as follows: HPLC vials, containing approximately 5 mg of material, were placed in the climate chamber at 40° C. and 75% relative humidity. The samples were analyzed by XRPD and HPLC (both purity and chiral) at time points of 1, 2, 3 and 4 weeks. For each week a separate vial was prepared.

[5] = Variable temperature XRPD (VT-XRPD); format: physicochemical; details: 25° C. to 160° C. and back to 25° C.
Procedure: (§1) For variable humidity and temperature experiment the ANSYCO HT chamber was used. The material was placed on a fixed sample holder that was mounted inside the chamber. The humidity was applied locally and varied from 10 to 80% (dew point). The temperature variation rate was 10° C./min.
Variable temperature XRPD (VT-XRPD) measurements of the meglumine salt were performed under the temperature of 25° C. to 160° C. (heating) and thereafter decreased to 25° C. (cooling).

[6] = Variable humidity XRPD (VH-XRPD); format: physicochemical; details: 60 to 80% RH, 80 to 10% RH, 10 to 50% RH
Procedure: as §1
Variable humidity XRPD (VH-XRPD) measurements of the meglumine salt were performed under the humidity of 60 to 80% RH (1st sorption), 80 to 10% RH (desorption) and 10 to 50% (2nd sorption).

[7] = DVS analysis (moisture sorption); format: physicochemical
Procedure: Moisture sorption isotherms of small samples were obtained using a DVS-1 system from Surface Measurement Systems (London, UK) with an accuracy of 0.1 μg. The relative humidity cycled between 45 and 95% RH (sorption), 95 to 0% RH (desorption) and 0 to 45% (sorption) at a constant temperature of 25° C. with a hold time of 60 minutes per step (10% relative humidity step). At the end of the DVS experiment the sample was measured by XRPD.
The XRPD pattern of the sample after DVS measurement was not changed.

[8] = Slurry experiments (physical stability in solvents); format: physicochemical; details: ethanol, ethyl acetate, n-heptane; 25° C.; 2 weeks
Procedure: The slurry experiments of the meglumine salt were performed; the materials (15-30 mg) were weighed into 1.8 ml vials, charged with a stirring bar and the solvent (ethanol, ethyl acetate and n-heptane) and the slurries were placed at 25° C. under stirring. After two weeks, the slurries were subject to centrifugation and the liquid was removed with a pipette. The solids were sampled “wet” for XRPD. Subsequently the remaining solids dried under 200 mbar at room temperature for 5 days and all solids were analyzed as “dry” by XRPD.

[9] = pH 6.8 (0.05 M) phosphate buffer, 20° C., 100 rpm
[10] = dog, plasma, single oral dose 5 mg/kg, gelatin capsule
[11] = dog, plasma, single oral dose 5 mg/kg, gelatin capsule, read-out: Cmax
[12] = single oral dose 5 mg/kg, gelatin capsule

Compound: CC(C)(C)c1cc2c(cc1Cl)C=C(C(=O)O)[C@@H](C(F)(F)F)O2 [Compound A, (S)-6-chloro-7-(1,1-dimethylethyl)-2-trifluoromethyl-2H-1-benzopyran-3-carboxylic acid]
- concentration after one hour [1, 9]: 27000 ng/mL
- intrinsic dissolution rate, comparison in words [1]: very limited dissolution
- concentration after one hour ([1]; water, 20° C., 100 rpm): about 1 μg/ml
- AUC(0-t) [2, 10]: 287 µg·h/mL
- Cmax [2, 11]: 19700 ng/mL

Compound: CC(C)(C)c1cc2c(cc1Cl)C=C(C(=O)[O-])[C@@H](C(F)(F)F)O2.[K+] [potassium salt, (S)-6-chloro-7-(1,1-dimethylethyl)-2-trifluoromethyl-2H-1-benzopyran-3-carboxylic acid potassium salt]
- solubility at 24 h [3]: > 120 mg/mL
- chemical purity after solid-state stability test [4]: ≥ 99.9%
- enantiomeric purity after solid-state stability test [4]: ≥ 99.9%
- plateau concentration (dissolution of complete tablet) [1, 9]: 370 µg/mL
- time to plateau / complete dissolution of tablet ([1]; 20° C.): ≤ 15 min
- intrinsic dissolution rate, comparison in words ([1]; potassium salt): much better than the free acid; also recorded: dissolved the fastest in all cases
- time to complete dissolution of tablet ([1]; water, 20° C.): ≤ 5 min
- final concentration (complete tablet dissolved) ([1]; water, 20° C., 100 rpm): 400 µg/mL
- AUC(0-t) [2, 10]: 436 µg·h/mL
- Cmax [2, 11]: 28200 ng/mL
- time-course of mean plasma concentration in comparison with API [2]: rapidly increased

Compound: (S)-6-chloro-7-(1,1-dimethylethyl)-2-trifluoromethyl-2H-1-benzopyran-3-carboxylic acid meglumine salt
- physical and chemical stability (XRPD, HPLC) [4]: remained physically and chemically stable
- plateau concentration (dissolution of complete tablet) [1, 9]: about 250 μg/ml
- time to plateau / complete dissolution of tablet ([1]; 20° C.): 45 min
- intrinsic dissolution rate, comparison in words [1]: much better than the free acid
- concentration reached in the first 9 min ([1]; water, 20° C., 100 rpm): about 210 μg/ml
- final concentration (complete tablet dissolved) ([1]; water, 20° C., 100 rpm): 250 µg/mL
- time-course of mean plasma concentration in comparison with API [2]: rapidly increased
- AUC0-24h [2, 12]: 381,000 ng · hr/mL
- Cmax [2, 12]: 28,200 ng/mL
- crystal form through heating-cooling cycle (VT-XRPD) [5]: remained unchanged
- crystal form through sorption-desorption-sorption cycle (VH-XRPD) [6]: remained unchanged
- maximum water uptake ([7]; DVS, at 95% RH, 25° C.): 2.0%
- XRPD pattern of the sample after DVS measurement ([7]; after DVS cycle): not changed
- physical stability of wet and dry solids in slurry (XRPD) [8]: physically stable
